Key:
Assay type in all cases: functional, Homo sapiens
Set-up in all cases: dose or concentration left out as unconfirmed
Colon cancer organoid [1] = experiment: Identification of compartment-specific drug sensitivities in O06 CRC organoid-stroma F06 CAF co-cultures. Organoid is transduced with Lucferase2-P2A-EGFP lentivirus, fibroblast with Renilla-dsRed lentivirus. Dual-Glo Luciferase assay is used to report viability data.
Colon cancer organoid [2] = experiment: Identification of compartment-specific drug sensitivities in O14 CRC organoid-stroma F14 CAF co-cultures. Organoid is transduced with Lucferase2-P2A-EGFP lentivirus, fibroblast with Renilla-dsRed lentivirus. Dual-Glo Luciferase assay is used to report viability data.
Colon cancer organoid [3] = experiment: Identification of compartment-specific drug sensitivities in O20 CRC organoid-stroma F20 CAF co-cultures. Organoid is transduced with Lucferase2-P2A-EGFP lentivirus, fibroblast with Renilla-dsRed lentivirus. Dual-Glo Luciferase assay is used to report viability data.
[4] = Transduced with Lucferase2-P2A-EGFP lentivirus
[5] = Transduced with Renilla-dsRed lentivirus

| Compound | Cell Viability (Colon cancer organoid [1]; [4]) [%] | Cell Viability (Colon cancer organoid [1]; [5]) [%] | Cell Viability (Colon cancer organoid [2]; [4]) [%] | Cell Viability (Colon cancer organoid [2]; [5]) [%] | Cell Viability (Colon cancer organoid [3]; [4]) [%] | Cell Viability (Colon cancer organoid [3]; [5]) [%] |
| --- | --- | --- | --- | --- | --- | --- |
| CN[C@@H]1C[C@H]2O[C@@](C)([C@@H]1OC)n1c3ccccc3c3c4c(c5c6ccccc6n2c5c31)C(=O)NC4 [STAUROSPORINE] | 0.2458 | 0.5911 | 0.5717 | 0.4831 | 0.3702 | 0.5055 |
| Cc1noc(C)c1-c1cnc2c(-c3ccc(C(=O)O)cc3)cn([C@@H](C)c3ccccn3)c2c1 [PLX-51107] | 26.8486 | 312.702 | 39.3332 | 170.275 | 17.7697 | 177.825 |
| CC(=O)c1cc(-c2ccccc2OCC2CC2)c2ncccn12 | 107.249 | 181.775 | 107.478 | 95.946 | 91.2961 | 121.201 |
| CCOC(=O)CCNc1cc(N2CCc3ccccc3CC2)nc(-c2ccccn2)n1 | 103.039 | 116.98 | 102.142 | 98.2806 | 101.525 | 127.032 |
| NS(=O)(=O)c1cc(NC(=O)C2(c3ccccc3Cl)CC2)ccc1Oc1cccc(Cl)c1 [BAY-207] | 102.145 | 97.9535 | 120.584 | 143.533 | 177.814 | 111.752 |
| CCN(CC)S(=O)(=O)Nc1cccc(-c2ccc3c(NC(=O)C4CC4)n[nH]c3c2)c1 | 76.8554 | 107.031 | 139.261 | 96.9304 | 76.1767 | 136.148 |
| COc1ccc(Cn2ccc3ccc(C(=O)NO)cc32)cc1 | 111.578 | 129.424 | 104.237 | 105.297 | 177.336 | 111.53 |
| CC(C)(O)[C@H](F)CN1Cc2cc(NC(=O)c3cnn4cccnc34)c(N3CCOCC3)cc2C1=O | 120.796 | 89.8431 | 105.194 | 83.4987 | 123.644 | 88.3121 |
| COc1c(C)cc(NC(=O)c2nn(Cc3ccc(F)cc3)c3c2CN(C(=O)c2ccc[nH]2)C[C@]3(C)C(N)=O)cc1C | 66.5012 | 112.674 | 104.772 | 92.7757 | 107.405 | 95.1299 |
| N#CN1CC[C@@H](C(=O)Nc2nc3c(s2)CN(C(=O)CN=[N+]=[N-])CC3)C1 [JYQ88] | 72.1963 | 58.5555 | 68.7487 | 88.1605 | 64.1943 | 84.2967 |
| O=C(N[C@H]1CCCCC/C=C\C2C[C@@]2(C(=O)O)NC(=O)[C@@H]2C[C@@H](Oc3ccncc3)CN2C1=O)OC1CCCC1 (some centres undefined) [BI 1675] | 164.286 | 81.7525 | 118.741 | 112.641 | 103.036 | 110.731 |
| CN1CCN(C(=O)C(C)(C)c2ccc(C(=O)Nc3cn4cc(-c5cc(C(C)(C)C)cc(C(C)(C)C)c5)ccc4n3)cc2)CC1 [T3-CLK-N] | 112.366 | 80.0588 | 123.449 | 101.908 | 83.0148 | 112.725 |
| CC[C@H](CO)Nc1nc(NCc2ccccc2)c2ncn(C(C)C)c2n1 [SELICICLIB] | 93.234 | 112.199 | 121.256 | 106.182 | 126.177 | 75.3934 |
| O=c1nc(-c2ccccn2)sc2ccccc12 [BTZO-1] | 109.998 | 128.099 | 117.78 | 105.233 | 113.092 | 104.485 |
| COc1cc2c(cc1-c1c(C)noc1C)ncc1[nH]c(=O)n([C@H](C)c3ccccn3)c12 | 43.5488 | 325.273 | 55.7493 | 184.963 | 26.1265 | 172.215 |
| CC1=C(C)C(=O)C(C(C)(C)CC(=O)N(CCCCSC[C@H]2O[C@@H](n3cnc4c(N)ncnc43)[C@@H]3OC(C)(C)O[C@@H]32)Cc2cccc(-c3ccc(Cl)cc3)c2)=C(C)C1=O | 82.0361 | 129.013 | 94.9972 | 94.497 | 98.0775 | 117.278 |
| CN(C)C(=O)c1ccc(-c2cc(C(=O)N(C)C3CCCC3)no2)cc1O | 126.057 | 129.278 | 137.993 | 111.926 | 123.545 | 110.433 |
| CN1C[C@H](Nc2cnn(C)c(=O)c2Br)C[C@H](c2ccccc2)C1 | 52.3497 | 181.327 | 132.078 | 105.854 | 160.124 | 106.068 |
| O[C@H]1CC[C@H](Nc2ncc3nc(Nc4c(F)cc(F)cc4F)n([C@H]4CCOC4)c3n2)CC1 [TANZISERTIB] | 96.802 | 109.826 | 133.231 | 127.243 | 128.622 | 97.8883 |
| COc1cc(C(=O)O)ncc1C#Cc1ccccc1NS(=O)(=O)c1cccc2c(N(C)C)ccnc12 [MSC-0516] | 46.2412 | 64.6541 | 102.238 | 113.463 | 90.203 | 109.372 |
| Cc1ccc2nc(NCCN)c3ncc(C)n3c2c1.O=C(O)C(F)(F)F.O=C(O)C(F)(F)F | 94.0156 | 112.188 | 111.823 | 88.3847 | 234.528 | 67.6056 |
| CCCCNc1ncc(-c2ccc(CN3CCOCC3)cn2)c(N[C@H]2CC[C@H](O)CC2)n1 | 22.8495 | 123.664 | 12.9881 | 77.7799 | 8.867 | 223.767 |
| CCCOc1ccn2c(C(C)=O)cc(-c3cccc(OC)c3)c2c1 | 110.241 | 146.669 | 85.0656 | 86.803 | 77.121 | 110.044 |
| CS(=O)(=O)N1CCN(Cc2cc3nc(-c4cccc5[nH]ncc45)nc(N4CCOCC4)c3s2)CC1 [PICTILISIB] | 43.124 | 60.0718 | 42.7401 | 54.6957 | – | – |
| COc1ccccc1C(=O)Nc1cc2c(cc1N1CCCC1)n(C)c(=O)n2C | – | – | – | – | 114.161 | 143.545 |

— ChEMBL document CHEMBL5608141, “Identification of compartment-specific drug sensitivities in CRC organoid-stroma co-cultures” (2024)
